B1: EpAb2-6: anti-EpCAM neutralizing monoclonal antibody targeting EpEX; VH SEQ ID NO: 15, VL SEQ ID NO: 16 (antibody, listed as Homo sapiens, V domains shown)
VH: VKLQESGPELKKPGETVKISCKASGYTFTDYSMHWVKQAPGKGLKWMGWINTETGEPTYADDFKGRFAFSLETSASTAYLQINNLKNEDTATYFCARTAVYWGQGTTVTVSS
VL: DIQMTQSPSSLSASLGERVSLTCRASQEISVSLSWLQQEPDGTIKRLIYATSTLDSGVPKRFSGSRSGSDYSLTISSLESEDFVDYYCLQYASYPWTFGGGTKLEIKRADAAPTVS

Experiments:
[1] = system: GSK3β, active β-catenin and Snail; assay: Western blotting of GSK3β, active β-catenin, Snail and EMT proteins in HCT116 cells; assay type: cell-based, human; details: HCT116
Method: FIGS. 4A to 4L. EpEX induces EMT and invasion by stabilizing β-catenin and Snail through decreasing GSK3β activity. (FIG. 4A) The protein expression of EMT markers and regulators was detected by Western blotting in Wild-type (WT) or EpCAM knockout (KO) HCT116 cells after EpEX treatment. (FIG. 4B) Cell invasion was examined by Transwell chamber assay with matrigel. (FIG. 4C) WT or KO HCT116 and HT29 cells were starved for 16 h, then treated with 0.5 nM of HGF with 2% FBS for 24 h. EMT-related protein expression (E-cadherin, vimentin, and Snail) was examined by Western blotting. (FIG. 4D) WT or KO HCT116 and HT29 cells were treated with HGF (0.5 nM) for 24 h. Invasion by HCT116 and HT29 cells was examined by Transwell chamber assay with matrigel. (FIG. 4E) HCT116 and HT29 cells were starved for 16 h, then treated with 0.5 nM of HGF with 2% FBS for 24 h. EMT-related protein expression (E-cadherin, Vimentin, and Snail) was examined by Western blotting. (FIG. 4F) HCT116 and HT29 cells were starved for 16 h, then treated with 0.5 nM of HGF with 2% FBS for 24 h. Cell invasion was assessed by a Transwell assay with matrigel. (FIG. 4G) HCT116 cells after shLuc and shHGFR treatment were treated with 50 nM of EpEX-His. HCT116 cells after shLuc and shHGFR treatment were treated with 50 nM of EpEX-His with 2% FBS for 24 h. EMT-related protein expression (E-cadherin, Vimentin, and Snail) was examined by Western blotting. (FIG. 4H) Cell invasion was examined by Transwell chamber assay with matrigel. (FIG. 4I) Starved HCT116 cells were treated SU (10 μM) for 1 h, followed by treatment with EpEX-His (50 nM) for 24 h. Phosphorylated GSK3β, active-β-catenin, and Snail were detected by Western blotting. (FIG. 4J) HCT116 cells were starved for 16 h, then treated with 50 nM EpEX-His for 24 min. AKT inhibitor LY294002 (25 μM), ERK inhibitor U0126 (20 μM), or PF-562271 (10 μM) were applied 1 h before EpEX treatment. Protein expression of phosphorylated GSK3β and Snail was examined by Western blotting. (FIG. 4K) HCT116 cells were starved for 16 h, then treated with 50 nM EpEX, and SU (10 μM), LY (25 μM), UO (20 μM) or PF (10 μM). Cell invasion was examined by Transwell chamber assay with matrigel. (FIG. 4L) Protein expression was analyzed by Western blotting in EpEX-His (50 nM) treated HCT116 cells after treatment with or without 2 μM GSK3β inhibitor (BIO) for 24 h. Quantification of the normalized protein expression in the right panel.
FIGS. 5A to 5I. EpEX promotes Snail protein stability through inhibition of ubiquitination-mediated proteasomal degradation. (FIG. 5A) The gene expression of EMT markers and regulators was detected by qRT-PCR in Wild-type (WT) or EpCAM knockout (KO) of HCT116 and HT29 cells. (FIG. 5B) Stability of Snail protein in WT or KO of HCT116 cells. Cells were treated with cyclohexamide (CHX) 100 μg/ml at the indicated intervals and subjected to Western blotting. (FIG. 5C) The protein expression of Snail was analyzed in WT or KO HCT116 cells by treating with or without […] MG132 (proteasome inhibitor) for 6 h, followed by Western blotting. (FIG. 5D) WT or KO HCT116 cells were treated with 10 μM MG132 for 6 h before cell collection. The lysates were subjected to immunoprecipitation using anti-Snail antibody and input. Western blotting was performed with the indicated antibodies to detect ubiquitinated Snail protein. (FIG. 5E) Stability of Snail protein in HCT116 cells after EpEX (50 nM) treatment for 24 h. Cells were treated with cyclohexamide (CHX; 100 μg/ml) for the indicated intervals and then subjected to Western blotting. (FIG. 5F) Expression of the gene encoding SNAIL was detected by qRT-PCR in HCT116 cells after EpEX (50 nM) treatment for 24 h. (FIG. 5G) The protein expression of Snail in HCT116 was analyzed cells by Western blotting after EpEX (50 nM) treatment for 24 h, and treatment with or without 10 μM MG132 (proteasome inhibitor) for 6 h. […]

EpCAM = assay: Antibody binding to EpCAM wild-type and mutants expressed in HEK293T cells (immunofluorescence, flow cytometry, cellular ELISA); design: species or system human; details: HEK293T; immunofluorescence, flow cytometry, cellular ELISA; FIG. 8E-8G
Method: FIGS. 8A to 8G. EpAb2-6 binds to both EGF-like domain I and II of EpCAM. HEK293T cells were transfected with full length or EGF like-domain deletion mutant EpCAM-V5. Antibody binding was assessed by (FIG. 8A) Western blotting, (FIG. 8B) flow cytometry, and (FIG. 8C) immunofluorescence. (FIG. 8D) EpCAM mutants were constructed with amino acid substitutions in the EGF-I (Y32A) and EGF-II (L94A, Y95A, or D96A) domains. EpCAM wild-type and mutant proteins were expressed in HEK293T cells. Binding of MT201, EpAb2-6 and EpAb23-1 to EpCAM wild-type and mutants were evaluated by (FIG. 8E) immunofluorescence, (FIG. 8F) flow cytometry, and (FIG. 8G) cellular ELISA.
A previous study identified the binding epitope of EpAb2-6 antibody as the LYD motif in EpCAM, which corresponds to amino acid residues 94-96; in particular, residue 95 (Y95) plays a major role in EpAb2-6 binding (Liao et al., 2015). […] Therefore, we wanted to determine whether the antibody binds to EpCAM at both EGF-like domains of EpEX (FIG. 8A, FIG. 8B, FIG. 8C). To confirm that EpAb2-6 recognizes the LYD motif in EpCAM, we constructed cDNA sequences encoding the first (aa 27-59; EGF-I domain) and second (aa 66-135; EGF-II/TY domain) EGF-like repeats of EpCAM. PCR-based site-directed mutagenesis was then used to introduce mutations into each domain (FIG. 8D). The reactivity of EpAb2-6 antibody toward these EpCAM mutants was evaluated by immunofluorescence (FIG. 8E), flow cytometry (FIG. 8F), and cellular ELISA (FIG. 8G).

[2] = SU 10 μM 1 h, then EpEX-His 50 nM 24 h, FIG. 4I
[3] = LY294002 25 μM, U0126 20 μM or PF-562271 10 μM 1 h before 50 nM EpEX-His for 24 min, FIG. 4J

Molecule | EpEX-mediated GSK3β activity [1, 3] | EpEX-mediated Snail protein expression [1, 3] | antibody binding to EpCAM with mutations at Y32 (EGF-I domain) or Y95 (EGF-II domain) (EpCAM) | other results
Cc1[nH]c(C=C2C(=O)Nc3ccc(S(=O)(=O)N(C)c4cccc(Cl)c4)cc32)c(C)c1C(=O)N1CCN(C)CC1 (stereo in doubt) [SU11274, (3Z)-N-(3-Chlorophenyl)-3-({3,5-dimethyl-4-[(4-methylpiperazin-1-yl)carbonyl]-1H-pyrrol-2-yl}methylene)-N-methyl-2-oxo-2,3-dihydro-1H-indole-5-sulfonamide] |  |  |  | EpEX-induced active β-catenin and Snail protein expression [1, 2]: abolish EpEX-induced active β-catenin and Snail protein expression; EpEX-mediated GSK3β activity [1, 2]: attenuate EpEX-mediated GSK3β activity
CN(c1ncccc1CNc1nc(Nc2ccc3c(c2)CC(=O)N3)ncc1C(F)(F)F)S(C)(=O)=O [PF-562271] | attenuate EpEX-mediated GSK3β activity | attenuate |  | 
N#CC(=C(/N)Sc1ccccc1N)/C(C#N)=C(\N)Sc1ccccc1N [U0126] | attenuate EpEX-mediated GSK3β activity | attenuate |  | 
MT201: human anti-EpCAM antibody, adecatumumab (MT201) |  |  | did not affect | 
B1 |  |  | marked reductions | 
